Laboratory results published in patent publication US7615514B2, “Selective herbicides based on substituted arylsulphonylaminocarbonyl-triazolinones and safeners” (Bayer CropScience AG, priority 2001, dated 2009).

Tested on: Winter barley
Assay: Post-emergence test/greenhouse: damage to crop plants
Assay type: in vivo
Settings: greenhouse, about three weeks after application
Experimental: The active compound (flucarbazone-sodium and propoxycarbazone-sodium were each used as WG 70) or safener components are in each case dissolved in a few ml (generally 2-3 ml) of solvent (generally acetone or N,N-dimethyl-formamide), and the solutions are combined and then—if appropriate after addition of an emulsifier—diluted with water to the desired concentration. In general, an aqueous spray liquor was prepared using 0.5% of the additive Renex-36. The test plants are grown under controlled conditions (temperature, light, atmospheric humidity) in a greenhouse. The test plants are sprayed when they have reached a height of 5-15 cm. The concentration of the spray liquor is chosen such that the particular amounts of active compound desired are applied in 500 l of water/ha. After spraying, the pots with the test plants are kept in a greenhouse chamber under controlled conditions (temperature, light, atmospheric humidity) until the test has ended. About three weeks after the application, the degree of damage to the crop plants is rated in % damage in comparison to the development of the untreated control. The figures denote: • 0%=no damage (like untreated control) • 100%=total destruction/damage

SMILES | Damage Winter barley (in %) (application rate 8 g of a.i./ha) [%] | Damage Winter barley (in %) (application rate 2 g of a.i./ha) [%] | Damage Winter barley (in %) (application rate 4 g of a.i./ha, 0%=no damage, 100%=total destruction) [%]
COc1nn(C(=O)NS(=O)(=O)c2ccccc2OC(F)(F)F)c(=O)n1C [flucarbazone-sodium, 2-(2-trifluoromethoxyphenylsulphonylaminocarbonyl)-4-methyl-5-methoxy-2,4-dihydro-3H-1,2,4-triazol-3-one] | 40 |  | 
CCCOc1nn(C(=O)NS(=O)(=O)c2ccccc2C(=O)OC)c(=O)n1C [propoxycarbazone-sodium, 2-(2-methoxycarbonylphenylsulphonylaminocarbonyl)-4-methyl-5-n-propoxy-2,4-dihydro-3H-1,2,4-triazol-3-one] |  | 35 | 60
